Reference: patent US4638070A, “Heterocyclic amino-alcohol derivatives” (Continental Pharma, priority 1980, dated 1987)

What was measured:
[1] = Acute toxicity, oral, LD50 (Litchfield and Wilcoxon); details: mouse, in vivo, fasted male mice, confidence limits p=95% in brackets
Protocol: (1) The acute toxicity was determined on fasted male mice. The tested substances were orally administered and LD50 values (lethal dose for 50% of animals) were calculated according to the method of Litchfield and Wilcoxon (J. Pharmacol. exp. Ther. 96, 94-113, 1949). These LD50 values are given in mg/kg and also, when possible, with their confidence limits for p=95%.

[2] = test system: unanaesthetized, hypertension-suffering rat; assay: Antihypertensive activity (systolic arterial pressure), oral; assay type: in vivo; details: 60 mg/kg, hypertensive rat, 3 hours
How it was run: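 Conscious hypertensive rats given compound orally at 60 mg/kg; systolic arterial pressure measured every 30 min for 2 h pre-dose and 3 h post-dose. Scored O (no fall), + (<10 mm Hg), ++ (10–20 mm Hg), +++ (>20 mm Hg).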

femoral artery = assay: Vasodilator activity, femoral artery (technique of perfused paw); assay type: in vivo; design: key: O: no action; +: slight activity; ++: effect equal to half the effect of papaverine; +++: effect equal to that of papaverine; ++++: effect higher than that of papaverine; details: intra-arterial, 30 mg/kg, anaesthetized dog, vs papaverine at same dose
Protocol: (3) The vasodilator activity was measured at the level of femoral artery on anaesthetized dog (technique of perfused paw). The tested substances were given intra-arterially at the rate of 30 mg/kg. Results are expressed with respect to papaverine tested at the same dose.
++: effect equal to half the effect of papaverine.
+++: effect equal to that of papaverine.
++++: effect higher than that of papaverine.

[3] = test system: guinea-pig ileum (histamine contractions); assay: Antispasmodic activity in vitro, contractions caused by histamine; details: added 15 minutes before spasm-producing agent
Protocol: (§1) (4) The antispasmodic activity was measured in vitro, on guinea-pig ileum, the contractions of which were caused by histammne (Hist.), acetylcholine (Achol) or barium chloride (BaCl2). The tested products were added to perfusion bath 15 minutes before the spasm-producing agents.
(§2) The dose is given in micograms (μg) per ml of bath causing complete spasm inhibition.

[4] = test system: guinea-pig ileum (acetylcholine contractions); assay: Antispasmodic activity in vitro, contractions caused by acetylcholine; details: added 15 minutes before spasm-producing agent
Protocol: as §1, §2

Row | SMILES | LD50 [1] | ANTIHYPERTENSIVE ACTIVITY [2] | VASODILATOR ACTIVITY (femoral artery) | ANTISPASMODIC ACTIVITY HIST. (dose causing complete spasm inhibition) [3] | ANTISPASMODIC ACTIVITY ACHOL (dose causing complete spasm inhibition) [4]
1 | CC1Cc2cc(C(O)C(C)NCCOc3ccc(Cl)cc3)ccc2S1 (stereo not shown) [No 58] | > 4000 mg/kg | +++ (reduction higher than 20 mm Hg) | +++ | 1.7 μg per ml | 1.7 μg per ml
2 | CC(NCCCSc1ccccc1)C(O)c1ccc2c(c1)CCS2 (stereo not shown) [No 60] | > 2000 mg/kg | +++ (reduction higher than 20 mm Hg) | +++ | 3.3 μg per ml | 1.7 μg per ml
3 | CC1Cc2cc(C(O)C(C)NCCOc3ccccc3)ccc2S1 (stereo not shown) [No 61] | ~4000 mg/kg | +++ (reduction higher than 20 mm Hg) | ++ | 3.3 μg per ml | 3.3 μg per ml
4 | CC1Cc2cc(C(O)C(C)NCCCCc3ccc(Cl)cc3)ccc2O1 (stereo not shown) [No 65] | 160 mg/kg | +++ (reduction higher than 20 mm Hg) | +++ | 0.8 μg per ml | 1.7 μg per ml
5 | CC1Cc2cc(C(O)C(C)NCCCCc3ccc(Cl)cc3)ccc2S1 (stereo not shown) [No 68] | < 500 mg/kg | +++ (reduction higher than 20 mm Hg) | +++ | 3.3 μg per ml | 0.8 μg per ml
6 | CC1Cc2cc(C(O)C(C)NCCCCc3ccccc3)ccc2O1 (stereo not shown) [No 70] | 285 mg/kg | +++ (reduction higher than 20 mm Hg) | ++ | 1.7 μg per ml | 1.7 μg per ml
7 | CC(NCCCOc1ccccc1)C(O)c1ccc2c(c1)CCCS2 (stereo not shown) [No 75] | > 4000 mg/kg | +++ (reduction higher than 20 mm Hg) | +++ | 0.8 μg per ml | 1.7 μg per ml
8 | CC(NCCCc1ccc(Cl)cc1)C(O)c1ccc2c(c1)CCCS2 (stereo not shown) [No 78] | 725 mg/kg | +++ (reduction higher than 20 mm Hg) | ++++ | 0.8 μg per ml | 1.7 μg per ml
9 | CCCCSCCCNC(C)C(O)c1ccc2c(c1)CCCS2 (stereo not shown) [No 80] | 5000 mg/kg | +++ (reduction higher than 20 mm Hg) | ++ | 0.8 μg per ml | 1.7 μg per ml
10 | CC1Cc2cc(C(O)C(C)NCCOc3ccc(Cl)cc3)ccc2O1 (stereo not shown) [No 84] | 1200 mg/kg | +++ (reduction higher than 20 mm Hg) | +++ | 8.3 μg per ml | 3.3 μg per ml
11 | CC1Cc2cc(C(O)C(C)NCCOc3ccccc3)ccc2O1 (stereo not shown) [No 89] | 550 mg/kg | +++ (reduction higher than 20 mm Hg) | +++ | 8.3 μg per ml | 8.3 μg per ml
